Experimental data from US8324390B2, “Tetrazole-substituted anthranilamides as pesticides” (Bayer CropScience AG, priority 2008, dated 2012).
Where two headings read alike, the source gives them in different places.

Assays:
[1] = log P determination by HPLC (EEC Directive 79/831 Annex V.A8); type: physicochemical
Procedure: The measurements were carried out using an Agilent 1100 LC system with a 50*4.6 Zorbax Eclipse C18 1.8 μm column (oven temperature 55° C., flow rate 2.0 ml/min).
The following mobile phases were used:
Mobile phase A: acetonitrile+1000 μl of formic acid/l
Mobile phase B: Millipore water+900 μl of formic acid/l

[2] = tested on: caterpillars of the armyworm (Spodoptera frugiperda); assay: Spodoptera frugiperda test (SPODFR spray treatment); type: in vivo; conditions: for pest or weed control at 100 g/ha: Spodoptera frugiperda, foliar, read-out: effect in % (caterpillars killed)
From the text: Solvent: 78.0 parts by weight of acetone

[3] = reversed-phase HPLC, Zorbax Eclipse C18 column, determined by HPLC according to EEC Directive 79/831 Annex V.A8, read-out: log P
[4] = application rate 100 g/ha, maize leaf discs

Cc1cc(C#N)cc(C(=O)NCCCCCCO)c1NC(=O)c1cc(Cn2nnc(C(F)(F)F)n2)nn1-c1ncccc1Cl [Example 94]
chromatographic logP ([1]; log P): 2.71

CC(NC(=O)c1cc(Cl)cc(Cl)c1NC(=O)c1cc(Cn2nnc(C(F)F)n2)nn1-c1ncccc1Cl)C1CC1 (stereo not shown) [Example 283]
chromatographic logP ([1]; log P): 3.23

Cc1cc(Cl)cc(C(=O)NC(C)(C)C)c1NC(=O)c1cc(Cn2nnc(C(F)(F)F)n2)nn1-c1ccccc1Cl [Example 534]
chromatographic logP [1, 3]: 4.36
pest or weed control at 100 g/ha [2, 4]: ≥ 80%

Cc1cc(Br)cc(C(=O)NC(C)(C)C)c1NC(=O)c1cc(Cn2nnc(C(F)(F)F)n2)nn1-c1ncccc1Br [Example 409]
chromatographic logP [1, 3]: 4

Cc1cc(I)cc(C(=O)NC(C)(C)C)c1NC(=O)c1cc(Cn2nnc(C(F)F)n2)nn1-c1ncccc1Cl [Example 307]
chromatographic logP ([1]; log P): 3.5
pest or weed control at 100 g/ha ([2]; in Zea mays): ≥ 80%

Cc1cc(I)cc(C(=O)NC2CC2)c1NC(=O)c1cc(Cn2nnc(C(F)F)n2)nn1-c1ncccc1Cl [Example 275]
chromatographic logP ([1]; log P): 2.96
pest or weed control at 100 g/ha ([2]; in Zea mays): ≥ 80%

Cc1cc(C#N)cc(C(=O)NCCC(F)(F)F)c1NC(=O)c1cc(Cn2nnc(C(F)(C(F)(F)F)C(F)(F)F)n2)nn1-c1ncccc1Cl [Example 414]
chromatographic logP [1, 3]: 3.92

CNC(=O)c1cc(Cl)cc(C)c1NC(=O)c1cc(Cn2nnnc2-c2ccc(C(F)(F)F)cc2)nn1-c1ncccc1Cl [drawing 602]
Kill in %/7 days ([2]; 4 g/ha): 33%

COCCNC(=O)c1cc(C#N)cc(C)c1NC(=O)c1cc(Cn2nnnc2C(F)(F)F)nn1-c1ncccc1Cl [Example 209]
chromatographic logP ([1]; log P): 2.4

Cc1cc(C#N)cc(C(N)=O)c1NC(=O)c1cc(Cn2nnc(C(F)(F)F)n2)nn1-c1ncccc1Br [Example 324]
chromatographic logP ([1]; reversed-phase HPLC, Zorbax Eclipse C18 column, by HPLC according to EEC Directive 79/831 Annex V.A8, read-out: log P): 2.46
pest or weed control at 100 g/ha [2, 4]: ≥ 80%

Cc1cc(F)cc(C(=O)NC(C)C2CC2)c1NC(=O)c1cc(Cn2nnc(C(F)F)n2)nn1-c1ncccc1Cl (stereo not shown) [Example 293]
chromatographic logP ([1]; log P): 2.92
pest or weed control at 100 g/ha ([2]; in Zea mays): ≥ 80%

CNC(=O)c1cc(Cl)cc(C)c1NC(=O)c1cc(Cn2nnc(C(F)(F)C(F)(F)F)n2)nn1-c1ncccc1Br [Example 415]
chromatographic logP [1, 3]: 3.36

Cc1cc(C#N)cc(C(N)=O)c1NC(=O)c1cc(Cn2nnc(C(F)(F)F)n2)nn1-c1ccccc1Cl [Example 439]
chromatographic logP [1, 3]: 2.82

Cc1cc(I)cc(C(=O)NC(C)(C)C)c1NC(=O)c1cc(Cn2nnc(C(F)(F)F)n2)nn1-c1ncccc1Cl [Example 118]
chromatographic logP ([1]; log P): 4.12
pest or weed control at 100 g/ha ([2]; in Zea mays): ≥ 80%

CNC(=O)c1cc(Cl)cc(C)c1NC(=O)c1cc(Cn2nnnc2C(F)(F)F)nn1-c1ccccc1 [Example 502]
chromatographic logP [1, 3]: 2.84
pest or weed control at 100 g/ha [2, 4]: ≥ 80%

Cc1cc(Cl)cc(C(=O)NC2CC2)c1NC(=O)c1cc(Cn2nnc(C(F)(F)C(F)(F)F)n2)nn1-c1ncccc1Br [Example 420]
chromatographic logP [1, 3]: 3.62

Cc1cc(C#N)cc(C(=O)NC(C)(C)C)c1NC(=O)c1cc(Cn2nnnc2C(F)(F)F)nn1-c1ccccc1Cl [Example 489]
chromatographic logP [1, 3]: 3.52
pest or weed control at 100 g/ha [2, 4]: ≥ 80%

CCNC(=O)c1cc(F)cc(C)c1NC(=O)c1cc(Cn2nnc(C(F)(F)F)n2)nn1-c1ncccc1Cl [Example 35]
chromatographic logP ([1]; log P): 2.88
pest or weed control at 100 g/ha ([2]; in Zea mays): ≥ 80%

Cc1cc(C#N)cc(C(N)=O)c1NC(=O)c1cc(Cn2nnc(C(F)F)n2)nn1-c1ncccc1Cl [Example 306]
chromatographic logP ([1]; log P): 1.97
pest or weed control at 100 g/ha ([2]; in Zea mays): ≥ 80%

CSC[C@H](C)NC(=O)c1cc(I)cc(C)c1NC(=O)c1cc(Cn2nnc(C(F)F)n2)nn1-c1ncccc1Cl [Example 278]
chromatographic logP ([1]; log P): 3.41
pest or weed control at 100 g/ha ([2]; in Zea mays): ≥ 80%

Cc1cc(Br)cc(C(=O)NC(C)C)c1NC(=O)c1cc(Cn2nnc(C(F)F)n2)nn1-c1ncccc1Cl [Example 299]
chromatographic logP ([1]; log P): 3.08
pest or weed control at 100 g/ha ([2]; in Zea mays): ≥ 80%

CSC[C@H](C)NC(=O)c1cc(C#N)cc(C)c1NC(=O)c1cc(Cn2nnnc2C(F)(F)F)nn1-c1ncccc1Cl [Example 193]
chromatographic logP ([1]; log P): 2.92

Cc1cc(Cl)cc(C(=O)NCC#N)c1NC(=O)c1cc(Cn2nnc(C(F)(F)C(F)(F)F)n2)nn1-c1ncccc1Br [Example 421]
chromatographic logP [1, 3]: 3.31

Cc1cc(C#N)cc(C(=O)NCC#N)c1NC(=O)c1cc(Cn2nnc(C(F)(F)C(F)(F)F)n2)nn1-c1ncccc1Br [Example 416]
chromatographic logP [1, 3]: 2.8

Cc1cc(Cl)cc(C(N)=O)c1NC(=O)c1cc(Cn2nnc(C(F)(F)F)n2)nn1-c1ncccc1Cl [Example 106]
chromatographic logP ([1]; log P): 2.76
pest or weed control at 100 g/ha ([2]; in Zea mays): ≥ 80%

Cc1cc(C#N)cc(C(=O)NCCN)c1NC(=O)c1cc(Cn2nnc(C(F)(F)F)n2)nn1-c1ncccc1Cl [Example 123]
chromatographic logP ([1]; log P): 1.63

CCNC(=O)c1cc(I)cc(C)c1NC(=O)c1cc(Cn2nnc(C(F)F)n2)nn1-c1ncccc1Cl [Example 276]
chromatographic logP ([1]; log P): 2.98

Cc1cc(Br)cc(C(=O)NC(C)(C)C)c1NC(=O)c1cc(Cn2nnnc2C(F)(F)F)nn1-c1ncccc1C(F)(F)F [Example 458]
chromatographic logP [1, 3]: 3.78
pest or weed control at 100 g/ha [2, 4]: ≥ 80%

CCNC(=O)c1cc(C#N)cc(C)c1NC(=O)c1cc(C(C)n2nnc(C(F)(F)F)n2)nn1-c1ncccc1Cl (stereo not shown) [Example 429]
chromatographic logP ([1]; log P): 3.11

Cc1cc(Cl)cc(C(N)=O)c1NC(=O)c1cc(Cn2nnc(C(F)(F)C(F)(F)F)n2)nn1-c1ncccc1Br [Example 418]
chromatographic logP [1, 3]: 3.13

Cc1cc(Br)cc(C(N)=O)c1NC(=O)c1cc(Cn2nnnc2C(F)(F)F)nn1-c1ncccc1C(F)(F)F [Example 454]
chromatographic logP [1, 3]: 2.72

Cc1cc(F)cc(C(=O)NC2CCC2)c1NC(=O)c1cc(Cn2nnc(C(F)(F)F)n2)nn1-c1ncccc1Cl [Example 51]
chromatographic logP ([1]; log P): 3.23
pest or weed control at 100 g/ha ([2]; in Zea mays): ≥ 80%

Cc1cc(Cl)cc(C(=O)NC(C)(C)C)c1NC(=O)c1cc(Cn2nnnc2C(F)(F)C(F)(F)F)nn1-c1ccccc1Cl [Example 536]
chromatographic logP [1, 3]: 4.41
pest or weed control at 100 g/ha [2, 4]: ≥ 80%

Cc1cc(C#N)cc(C(=O)NC(C)C2CCC2)c1NC(=O)c1cc(Cn2nnc(C(F)(F)F)n2)nn1-c1ncccc1Cl (stereo not shown) [Example 90]
chromatographic logP ([1]; log P): 3.63

Cc1cc(Br)cc(C(=O)NCC#N)c1NC(=O)c1cc(Cn2nnnc2C(F)(F)F)nn1-c1ncccc1C(F)(F)F [Example 451]
chromatographic logP [1, 3]: 2.9

COCC(C)(C)NC(=O)c1cc(C#N)cc(C)c1NC(=O)c1cc(Cn2nnc(C(F)(F)F)n2)nn1-c1ncccc1Cl [Example 356]
chromatographic logP ([1]; log P): 3.29

Cc1cc(Cl)cc(C(=O)NC(C)(C)C)c1NC(=O)c1cc(Cn2nnc(C(F)(F)C(F)(F)F)n2)nn1-c1ncccc1Br [Example 419]
chromatographic logP [1, 3]: 4.23

Cc1cc(Cl)cc(C(=O)NC(C)C)c1NC(=O)c1cc(Cn2nnc(C(F)(F)C(F)(F)F)n2)nn1-c1ncccc1Br [Example 417]
chromatographic logP [1, 3]: 3.87

CNC(=O)c1cc(C#N)cc(C)c1NC(=O)c1cc(Cn2nnc(C(F)(F)C(F)(F)F)n2)nn1-c1ncccc1Br [Example 422]
chromatographic logP [1, 3]: 3.03

CNC(=O)c1cc(Cl)cc(C)c1NC(=O)c1cc(Cn2nnnc2C(F)(F)F)nn1-c1ncccc1Cl [drawing 601]
Kill in %/7 days ([2]; 4 g/ha): 100%

Cc1cc(Cl)cc(C(=O)NC(C)C)c1NC(=O)c1cc(Cn2nnc(C(F)(F)C(F)(F)F)n2)nn1-c1ncccc1Cl [drawing 599]
Kill in %/7 days ([2]; 0.8 g/ha): 100%

CNC(=O)c1cc(S(C)(=O)=O)cc(C)c1NC(=O)c1cc(Cn2nnnc2C(F)(F)F)nn1-c1ccccc1Cl [Example 524]
chromatographic logP [1, 3]: 2.43
